Test systems include Escherichia coli K99; Escherichia coli UB1005; Escherichia coli K88; Escherichia coli 078.
What all share (assay): ≥ marks a high value that may be exact or a test limit, other limits are often not marked, values filed in µg/mL are converted to µM
Experiment [1] deals with Salmonella enterica subsp. enterica serovar Typhimurium C77-31.
Experiment [2] has as its system Salmonella enterica subsp. enterica serovar Typhimurium ATCC 14028.
For experiment [3], the system named is Candida parapsilosis CGMCC 2.3989.
Experiment [4] has as its system Candida tropicalis CGMCC 2.1975.
Experiment [5] has as its system Staphylococcus aureus ATCC 43300.
Experiment [6] has as its system Pseudomonas aeruginosa ATCC 27853.
The subject of experiment [7] is Salmonella enterica subsp. enterica serovar Pullorum ATCC 7913.
Experiment [8] has as its system Staphylococcus epidermidis ATCC 12228.
For experiment [9], the system named is Staphylococcus aureus ATCC 25923.
The test system of experiment [10] is Klebsiella pneumoniae ATCC 43816.
Experiment [11] has as its system Staphylococcus aureus NCTC 10788.
The test system of experiment [12] is Escherichia coli NCTC 10418.
The subject of experiment [13] is Enterococcus faecalis NCTC 12697.
The subject of experiment [14] is Staphylococcus aureus NCTC 12493.
Experiment [15] relates to Candida albicans NCYC 1467.
Experiment [16] deals with Lacticaseibacillus rhamnosus 1.9021.
In experiment [17] the test system is Streptococcus agalactiae BNCC 185941.
The subject of experiment [18] is Pseudomonas aeruginosa PAO1.
Experiment [19] relates to Escherichia coli ATCC 25922.
Experiment [20] has as its system Lacticaseibacillus rhamnosus 1.0936.
The subject of experiment [21] is Escherichia coli O157:H7 CICC 21530.
Experiment [22] deals with Salmonella enterica subsp. enterica serovar Choleraesuis CVCC 503.
In experiment [23] the test system is Staphylococcus aureus ATCC 29213.
In experiment [24] the test system is Lacticaseibacillus rhamnosus 8014.
Experiment [25] deals with Lacticaseibacillus rhamnosus 1.0911.
For experiment [26], the system named is Salmonella enterica subsp. enterica serovar Pullorum C79-13.
Experiment [27] deals with Acinetobacter baumannii CR17.
Experiment [28] relates to Enterobacter cloacae ATCC 23355.
Experiment [29] has as its system Escherichia coli CCT 1371.
Experiment [30] deals with Staphylococcus aureus ATCC 6538.
Experiment [31] concerns Pseudomonas aeruginosa ATCC 15442.
In experiment [32] the test system is Bacillus subtilis CCT 2471.
For experiment [33], the system named is Staphylococcus epidermidis.
In experiment [34] the test system is Staphylococcus saprophyticus.
Experiment [35] deals with Legionella pneumophila Lens.

The term MIC denotes the least concentration at which growth counts as inhibited. Lower therefore signals greater potency.

Values after ≈ are worked out from the molar mass of the structure shown. Values joined by “and” are separate entries in the source; they are usually repeats but may differ in a detail not shown here. Equal values may be shown once.

For the compound `CC[C@H](C)[C@H](NC(=O)[C@H](Cc1c[nH]c2ccccc12)NC(=O)[C@H](CCCN=C(N)N)NC(=O)[C@H](CC(C)C)NC(=O)[C@@H](NC(=O)[C@H](CCCN=C(N)N)NC(=O)[C@H](CCCN=C(N)N)NC(=O)[C@H](C)NC(=O)[C@H](C)N)[C@@H](C)CC)C(=O)N[C@@H](Cc1ccccc1)C(=O)N[C@@H](CCCN=C(N)N)C(N)=O` [AARRILRWIFR], the minimum inhibitory concentration (MIC) in experiment [1] came to 4 µM (≈ 5.83 µg/mL); in the experiment with Escherichia coli K99, 4 µM (≈ 5.83 µg/mL); in experiment [2], 4 µM (≈ 5.83 µg/mL); against Escherichia coli UB1005, 4 µM (≈ 5.83 µg/mL); in experiment [3], 8 µM (≈ 11.7 µg/mL); in [4] it was 4 µM (≈ 5.83 µg/mL). For the same compound, the minimal inhibitory concentration (MIC) in experiment [5] is 8 µM (≈ 11.7 µg/mL); in [6], 8 µM (≈ 11.7 µg/mL); in experiment [7], 4 µM (≈ 5.83 µg/mL); in [8] it was 4 µM (≈ 5.83 µg/mL); with Escherichia coli K88, 4 µM (≈ 5.83 µg/mL); in experiment [9] it was 8 µM (≈ 11.7 µg/mL). The compound also yielded an MIC in the experiment on Escherichia coli 078 of 4 µM (≈ 5.83 µg/mL).
For `CC[C@H](C)[C@H](NC(=O)[C@H](C)NC(=O)[C@H](CCCCN)NC(=O)[C@@H]1CCCN1C(=O)[C@@H](NC(=O)[C@H](CC(C)C)NC(=O)[C@H](CO)NC(=O)[C@H](CC(C)C)NC(=O)[C@@H](N)Cc1ccccc1)[C@@H](C)CC)C(=O)N[C@@H](CO)C(=O)N[C@@H](C)C(=O)N[C@H](C(=O)N[C@@H](CO)C(=O)N[C@@H](C)C(=O)N[C@@H](CC(C)C)C(=O)N[C@@H](C)C(=O)N[C@@H](CC(N)=O)C(=O)N[C@@H](Cc1cnc[nH]1)C(=O)N[C@@H](Cc1ccccc1)C(N)=O)C(C)C` [FLSLIPKAISAVSALANHF], the minimal inhibitory concentration (MIC) is no less than 256 µM in experiment [10]; 8 µM (≈ 16 µg/mL) in experiment [11]; no less than 128 µM in experiment [12]; no less than 32 µM in experiment [13]; 16 µM (≈ 32 µg/mL) in experiment [14]; 16 µM (≈ 32 µg/mL) in experiment [15]. This compound also came in with a minimal inhibitory concentration (MIC) in experiment [6] greater than 512 µM.
As for `CC[C@H](C)[C@H](NC(=O)CNC(=O)[C@@H](NC(=O)[C@H](Cc1c[nH]c2ccccc12)NC(=O)[C@@H](NC(=O)CNC(=O)[C@@H](NC(=O)[C@H](CCCCN)NC(=O)[C@@H](N)CCCCN)[C@@H](C)CC)[C@@H](C)CC)[C@@H](C)CC)C(=O)N[C@@H](CCCCN)C(=O)N[C@@H](CCCCN)C(N)=O` [KKIGIWIGIKK], the MIC is 16 µM (≈ 20.5 µg/mL) in experiment [2]; no less than 32 µM in [16]; no less than 128 µM in [17]; 16 µM (≈ 20.5 µg/mL) in experiment [18]; 8 µM and 16 µM in experiment [19]; no less than 64 µM in experiment [20]. Moreover, the MIC in experiment [21] was 4 µM (≈ 5.13 µg/mL); in [22], 8 µM (≈ 10.3 µg/mL); in [23] it was 16 µM (≈ 20.5 µg/mL); in experiment [5], 16 µM (≈ 20.5 µg/mL); in [24], 16 µM (≈ 20.5 µg/mL); in experiment [25], 16 µM (≈ 20.5 µg/mL). Also, the MIC was determined as 4 µM (≈ 5.13 µg/mL) in [6], 64 µM (≈ 82.1 µg/mL) in experiment [8], 2 µM (≈ 2.57 µg/mL) in the experiment on Escherichia coli K88 and 8 µM (≈ 10.3 µg/mL) in experiment [26].
Turning to `CC[C@H](C)[C@H](NC(=O)[C@H](CC(N)=O)NC(=O)[C@H](CC(C)C)NC(=O)[C@H](CCCCN)NC(=O)[C@H](C)NC(=O)[C@H](CC(C)C)NC(=O)[C@H](C)NC(=O)[C@H](C)NC(=O)[C@H](CC(C)C)NC(=O)[C@H](C)NC(=O)[C@H](CCCCN)NC(=O)[C@H](CCCCN)NC(=O)[C@@H](NC(=O)[C@@H](N)CC(C)C)[C@@H](C)CC)C(N)=O` [LIKKALAALAKLNI], in experiment [27], the MIC is no less than 173 µM.
On to `CC[C@H](C)[C@H](NC(=O)[C@H](C)NC(=O)CNC(=O)[C@H](CC(C)C)NC(=O)[C@@H](NC(=O)[C@H](CCCCN)NC(=O)[C@H](CCCCN)NC(=O)[C@@H](NC(=O)[C@@H](NC(=O)CNC(=O)[C@H](CC(C)C)NC(=O)[C@H](CC(C)C)NC(=O)[C@H](CCCCN)NC(=O)[C@@H](N)CC(C)C)[C@@H](C)CC)C(C)C)C(C)C)C(N)=O` [LKLLGIVKKVLGAI], for which the minimum inhibitory concentration (MIC) in experiment [28] is no less than 34 µM; in experiment [19], 3 µM (≈ 4.39 µg/mL); in [29], no less than 34 µM; in experiment [30] it was 17 µM (≈ 24.9 µg/mL); in experiment [31] it was no less than 34 µM; in experiment [32], no less than 68 µM. In addition, the minimum inhibitory concentration (MIC) in [33] was no less than 34 µM; in experiment [34], 3 µM (≈ 4.39 µg/mL); in experiment [9], 3 µM (≈ 4.39 µg/mL).
In experiment [35], `CC[C@H](C)[C@H](NC(=O)[C@H](Cc1ccccc1)NC(=O)[C@H](CC(=O)O)NC(=O)[C@H](C)NC(=O)[C@@H](N)CCSC)C(=O)N[C@@H](C)C(=O)N[C@@H](CCCCN)C(=O)N[C@H](C(=O)N[C@H](C(=O)N[C@@H](CCC(=O)O)C(=O)N[C@H](C(=O)N[C@H](C(=O)N[C@@H](CCCCN)C(=O)NCC(=O)N[C@@H](CC(C)C)C(=O)N[C@H](C(=O)N[C@@H](CC(=O)O)C(=O)N[C@@H](CCC(N)=O)C(=O)N[C@@H](Cc1ccccc1)C(=O)N[C@H](C(=O)N[C@@H](CCC(N)=O)C(=O)N[C@@H](CCCCN)C(=O)O)[C@@H](C)O)[C@@H](C)CC)C(C)C)[C@@H](C)CC)C(C)C)[C@@H](C)CC` [MADFIAKIVEIVKGLIDQFTQK] gave a minimum inhibitory concentration (MIC) of 1.25 µM (≈ 3.14 µg/mL).

For the origin of these results see DBAASP.
